Legend:
[1] = system: SMN2 minigene (full length SMN2 minigene mRNA containing SMN2 exon 7); experiment: SMN2 minigene mRNA splicing RT-qPCR assay in cultured cells; type: cell-based, human; conditions: HEK293H cells stably transfected with SMN2-A minigene, 24 hours, 7-point concentration curve, 1.5-fold relative to vehicle-treated cells; for EC (1.5-fold): Homo sapiens, HEK293-H, read-out: EC1.5x for production of full length SMN2 mRNA
Method: The reverse transcription-quantitative PCR-based (RT-qPCR) assay is used to quantify the level of the full length SMN2 minigene mRNA containing SMN2 exon 7 in a HEK293H cell line stably transfected with said minigene and treated with a test compound.
Protocol. HEK293H cells stably transfected with the SMN2-A minigene construct described above (10,000 cells/well) are seeded in 200 μL of cell culture medium (DMEM plus 10% FBS, with 200 μg/mL hygromycin) in 96-well flat-bottom plates and the plate is immediately swirled to ensure proper dispersal of cells, forming an even monolayer of cells. Cells are allowed to attach for at least 4-6 hours. […] A solution of test compound (1 μL, 200× in DMSO) is added to each cell-containing well and the plate is incubated for 24 hours in a cell culture incubator (37° C., 5% CO2, 100% relative humidity). 2 replicates are prepared for each test compound concentration. The cells are then lysed in Cells-To-Ct lysis buffer and the lysate is stored at −80° C.
The combination of these three oligonucleotides detects only SMN1 or SMN2 minigenes (RT-qPCR) and will not detect endogenous SMN1 or SMN2 genes.
The SMN forward and reverse primers are used at final concentrations of 0.4 μM.
The SMN2-minigene GAPDH mix (15 μL total volume) is prepared by combining 7.5 μL of 2×RT-PCR buffer, 0.4 μL of 25×RT-PCR enzyme mix, 0.75 μL of 20×GAPDH primer-probe mix, 4.0075 μL of water, 2 μL of 10-fold diluted cell lysate, 0.06 μL of 100 μM SMN forward primer, 0.06 μL of 100 μM SMN reverse primer, and 0.225 μL of 100 μM SMN probe.
PCR is carried out at the following temperatures for the indicated time: Step 1: 48° C. (15 min); Step 2: 95° C. (10 min); Step 3: 95° C. (15 sec); Step 4: 60° C. (1 min); then repeat Steps 3 and 4 for a total of 40 cycles.
Each reaction mixture contains both SMN2-A minigene and GAPDH primers/probe sets (multiplex design), allowing simultaneous measurement of the levels of two transcripts.
Two SMN spliced products are generated from the SMN2 minigene. The first spliced product containing exon 7, corresponding to full length SMN2 mRNA, is called SMN2mini FL. The second one lacking exon 7 is called SMN2mini Δ7.
The amplification efficiency E is calculated from the slope of the amplification curve for SMN2mini FL and GAPDH individually. The abundances of SMN2mini FL and GAPDH are then calculated as […], where Ct is the threshold value for each amplicon. The abundance of SMN2mini FL is normalized to GAPDH abundance. The normalized SMN2mini FL abundance from test compound-treated samples is then divided by normalized SMN2mini FL abundance from vehicle-treated cells to determine the level of SMN2 FL mRNA relative to vehicle control.
An EC1.5x for production of full length SMN2 mRNA between >3 μM and ≤30 μM is indicated by one star (*), an EC1.5x between >1 μM and ≤3 μM is indicated by two stars (**), an EC1.5x between >0.3 μM and ≤1 μM is indicated by three stars (***), an EC1.5x between >0.1 μM and ≤0.3 μM is indicated by four stars (****) and an EC1.5x≤0.1 μM is indicated by five stars (*****).

Smn protein = Smn protein assay in cultured cells (SMN HTRF); type: cell-based, human; conditions: 48 hours; for maximum fold (Fold) increase of Smn protein: SMA patient fibroblast cells, 7-point concentration data, fold increase relative to vehicle control (SMN HTRF); for EC1.5x (concentration giving 1.5-fold Smn protein increase): SMA Type 1 patient fibroblast cells (GM03813), 7-point concentration curve, SMN HTRF, concentration producing 1.5 times Smn protein vs DMSO vehicle control, read-out: EC1.5x for Smn protein expression
Method: The SMN HTRF (homogeneous time resolved fluorescence) assay is used to quantify the level of Smn protein in SMA patient fibroblast cells treated with test compounds.
Protocol. Cells are thawed and cultured in DMEM-10% FBS for 72 hours. Cells are trypsinized, counted and resuspended to a concentration of 25,000 cells/mL in DMEM-10% FBS. […] 1 μL of test compound solution is transferred to cell-containing wells and cells are incubated for 48 hours in a cell culture incubator (37° C., 5% CO2, 100% relative humidity). Triplicate samples are set up for each test compound concentration. After 48 hours, the supernatant is removed from the wells and 25 μL of the RIPA lysis buffer, containing protease inhibitors, is added to the wells and incubated with shaking at room temperature for 1 hour. 25 μL of the diluent is added and then 35 μL of the resulting lysate is transferred to a 384-well plate, where each well contains 5 μL of the antibody solution (1:100 dilution of anti-SMN d2 and anti-SMN kryptate in SMN reconstitution buffer). The plate is centrifuged for 1 minute to bring the solution to the bottom of the wells, then incubated overnight at room temperature. Fluorescence for each well of the plate at 665 nm and 620 nm is measured on an EnVision multilabel plate reader (Perkin-Elmer).
The normalized fluorescence signal is calculated for each sample, Blank and vehicle control well by dividing the signal at 665 nm by the signal at 620 nm. Normalizing the signal accounts for possible fluorescence quenching due to the matrix effect of the lysate. The ΔF value (a measurement of Smn protein abundance) for each sample well is calculated by subtracting the normalized average fluorescence for the Blank control wells from the normalized fluorescence for each sample well and then dividing this difference by the normalized average fluorescence for the Blank control wells. The resulting ΔF value for each sample well represents the Smn protein abundance from test compound-treated samples. The ΔF value for each sample well is divided by the ΔF value for the vehicle control wells to calculate the fold increase in Smn protein abundance relative to the vehicle control.
An EC1.5x for Smn protein expression between >3 μM and ≤10 μM is indicated by one star (*), an EC1.5x between >1 and ≤3 μM is indicated by two stars (**), an EC1.5x between >0.3 μM and ≤1 μM is indicated by three stars (***) and an EC1.5x≤0.3 μM is indicated by four stars (****).

Compound | EC (1.5-fold) [1] | maximum fold (Fold) increase of Smn protein (Smn protein) | EC1.5x (concentration giving 1.5-fold Smn protein increase) (Smn protein) | EC1.5x for production of full length SMN2 mRNA [1]
COc1ccc(-c2cc3ccc(N4CCN(C)CC4)cc3oc2=O)cc1OC [Compound 317, 3-(3,4-dimethoxyphenyl)-7-(4-methylpiperazin-1-yl)-2H-chromen-2-one] | 3 to 30 µM | * (maximum fold increase of ≤1.2) |  | 
Cc1cn2cc(-c3cc4ccc(N5CCNCC5)cc4oc3=O)nc2c(C)n1 [Compound 515, 3-(6,8-dimethylimidazo[1,2-a]pyrazin-2-yl)-7-(piperazin-1-yl)-2H-chromen-2-one] | < 0.1 µM | ***** (fold increase >1.65) | < 300 nM | 
Cc1cn2cc(-c3cc4ccc(CCNCCO)cc4oc3=O)nc2c(C)n1 [Compound 870, 3-(6,8-dimethylimidazo[1,2-a]pyrazin-2-yl)-7-{2-[(2-hydroxyethyl)amino]ethyl}-2H-chromen-2-one] | < 0.1 µM | **** (fold increase between >1.5 and ≤1.65) | < 300 nM | 
Cc1cn2cc(-c3cc4ccc(N5C[C@H]6CCCN(C)[C@H]6C5)cc4oc3=O)nc2c(C)n1 [Compound 782, 3-(6,8-dimethylimidazo[1,2-a]pyrazin-2-yl)-7-[(4aR,7aR)-1-methyloctahydro-6H-pyrrolo[3,4-b]pyridin-6-yl]-2H-chromen-2-one] |  | **** (fold increase between >1.5 and ≤1.65) | < 300 nM | ***** (EC1.5x≤0.1 μM)
CC(C)(C)OC(=O)N[C@H]1CCN(c2ccc3cc(-c4cn5cc(Cl)ccc5n4)c(=O)oc3c2)C1 [Compound 106, tert-butyl {(3S)-1-[3-(6-chloroimidazo[1,2-a]pyridin-2-yl)-2-oxo-2H-chromen-7-yl]pyrrolidin-3-yl}carbamate] | 3 to 30 µM | * (maximum fold increase of ≤1.2) |  | 
C[C@H]1CN(c2ccc3cc(-c4ccc5nccn5c4)c(=O)oc3c2)CCN1 [Compound 981, 3-(imidazo[1,2-a]pyridin-6-yl)-7-[(3S)-3-methylpiperazin-1-yl]-2H-chromen-2-one] | 0.1 to 0.3 µM | **** (fold increase between >1.5 and ≤1.65) | 1000 to 3000 nM | 
CN1CCCN(c2ccc3cc(-c4cn5ccncc5n4)c(=O)oc3c2)CC1 [Compound 455, 3-(imidazo[1,2-a]pyrazin-2-yl)-7-(4-methyl-1,4-diazepan-1-yl)-2H-chromen-2-one] | < 0.1 µM | **** (fold increase between >1.5 and ≤1.65) | 300 to 1000 nM | 
Cc1cn2cc(-c3cc4ccc(N5CCC(N)CC5)cc4oc3=O)cc2c(C)n1 [Compound 714, 7-(4-aminopiperidin-1-yl)-3-(1,3-dimethylpyrrolo[1,2-a]pyrazin-7-yl)-2H-chromen-2-one] | 0.1 to 0.3 µM | * (maximum fold increase of ≤1.2) |  | 
Cc1cn2cc(-c3cc4ccc(N5CC6CC5CN6)cc4oc3=O)cc2cn1 (stereo not shown) [Compound 744, 7-(2,5-diazabicyclo[2.2.1]hept-2-yl)-3-(3-methylpyrrolo[1,2-a]pyrazin-7-yl)-2H-chromen-2-one] | < 0.1 µM | ** (fold increase between >1.2 and ≤1.35) |  | 
Cc1cn2cc(-c3cc4ccc(N5CCN(C)CC5)cc4oc3=O)cc(F)c2n1 [Compound 982, 3-(8-fluoro-2-methylimidazo[1,2-a]pyridin-6-yl)-7-(4-methylpiperazin-1-yl)-2H-chromen-2-one] | < 0.1 µM | ***** (fold increase >1.65) | < 300 nM | 
Cc1nccn2cc(-c3cc4ccc(N5CCN[C@H](C)C5)cc4oc3=O)nc12 [Compound 559, 3-(8-methylimidazo[1,2-a]pyrazin-2-yl)-7-[(3R)-3-methylpiperazin-1-yl]-2H-chromen-2-one] | 0.3 to 1 µM | *** (fold increase between >1.35 and ≤1.5) |  | 
3-(6-chloroimidazo[1,2-a]pyrimidin-2-yl)-7-(piperazin-1-yl)-2H-chromen-2-one [Compound 348] |  | * (maximum fold increase of ≤1.2) |  | ** (between >1 μM and ≤3 μM)
Cc1cn2cc(-c3cc4ccc(CCCNCCO)cc4oc3=O)nc2c(C)n1 [Compound 879, 3-(6,8-dimethylimidazo[1,2-a]pyrazin-2-yl)-7-{3-[(2-hydroxyethyl)amino]propyl}-2H-chromen-2-one] | < 0.1 µM | **** (fold increase between >1.5 and ≤1.65) | < 300 nM | 
C[C@H]1CN(c2ccc3cc(-c4cc5cnccc5s4)c(=O)oc3c2)CCN1 [Compound 629, 7-[(3S)-3-methylpiperazin-1-yl]-3-(thieno[3,2-c]pyridin-2-yl)-2H-chromen-2-one] | 0.3 to 1 µM | * (maximum fold increase of ≤1.2) |  | 
CSc1nccn2cc(-c3cc4ccc(N5CCCN(C)CC5)cc4oc3=O)nc12 [Compound 401, 7-(4-methyl-1,4-diazepan-1-yl)-3-[8-(methylsulfanyl)imidazo[1,2-a]pyrazin-2-yl]-2H-chromen-2-one] | 1 to 3 µM | * (maximum fold increase of ≤1.2) |  | 
Cc1cn2cc(-c3cc4ccc(C5CCNCC5)cc4oc3=O)ccc2n1 [Cpd 825, 3-(2-methylimidazo[1,2-a]pyridin-6-yl)-7-(piperidin-4-yl)-2H-chromen-2-one] | < 0.1 µM | ***** (fold increase >1.65) | < 300 nM | 

From patent USRE47689E1, “Compounds for treating spinal muscular atrophy” (PTC Therapeutics, Inc., priority 2011, dated 2019)
